Data as given in ChEMBL document CHEMBL1201862, “PubChem BioAssay data set” (2004).
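Compound exposure: 48 hours, 5 concentrations, 96-well plates. Abbreviation: GI50, concentration required for 50% inhibition of growth.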 Calls of active or inactive are those of the source. Cut-off read from the data, not from the text of the source: active = GI50 up to about 1.1 µM and inactive = higher.

Key:
Test in all cases: NCI tumour cell line growth inhibition, 48 h
ACHN = tested on: ACHN
EKVX = tested on: EKVX
SF-295 = tested on: SF-295
MDA-MB-435 = tested on: MDA-MB-435
NCI-H460 = tested on: NCI-H460
UO-31 = tested on: UO-31
SF-268 = tested on: SF-268
OVCAR-5 = tested on: OVCAR-5
NCI-H226 = tested on: NCI-H226
T47D = tested on: T47D
A498 = tested on: A498
SK-MEL-28 = tested on: SK-MEL-28
CCRF-CEM = tested on: CCRF-CEM
HT-29 = tested on: HT-29
SK-MEL-5 = tested on: SK-MEL-5
786-0 = tested on: 786-0
SNB-75 = tested on: SNB-75
OVCAR-3 = tested on: OVCAR-3
HCT-116 = tested on: HCT-116
SR = tested on: SR
MCF7 = tested on: MCF7
SN12C = tested on: SN12C
NCI-H522 = tested on: NCI-H522
OVCAR-4 = tested on: OVCAR-4
NCI/ADR-RES = tested on: NCI/ADR-RES
SK-OV-3 = tested on: SK-OV-3
Hs-578T = tested on: Hs-578T
HL-60 = tested on: HL-60
RXF 393 = tested on: RXF 393
BT-549 = tested on: BT-549
KM12 = tested on: KM12
LOX IMVI = tested on: LOX IMVI
UACC-62 = tested on: UACC-62
TK-10 = tested on: TK-10
COLO 205 = tested on: COLO 205
HOP-62 = tested on: HOP-62
U-251 = tested on: U-251
IGROV-1 = tested on: IGROV-1
A549 = tested on: A549
UACC-257 = tested on: UACC-257
NCI-H23 = tested on: NCI-H23
M14 = tested on: M14
DU-145 = tested on: DU-145
HCT-15 = tested on: HCT-15
SW-620 = tested on: SW-620
MDA-N = tested on: MDA-N
SNB-19 = tested on: SNB-19
K562 = tested on: K562
OVCAR-8 = tested on: OVCAR-8
PC-3 = tested on: PC-3
HCC 2998 = tested on: HCC 2998
MOLT-4 = tested on: MOLT-4
SK-MEL-2 = tested on: SK-MEL-2
Malme-3M = tested on: Malme-3M
RPMI-8226 = tested on: RPMI-8226
MDA-MB-231 = tested on: MDA-MB-231
SF-539 = tested on: SF-539
CAKI-1 = tested on: CAKI-1

## CC[N+](C)(CC)CCC(O)(c1ccccc1)c1ccccc1
ACHN
  GI50: > 100 µM (inactive)
EKVX
  GI50: > 100 µM (inactive)
SF-295
  GI50: > 100 µM (inactive)
MDA-MB-435
  GI50: > 100 µM (inactive)
NCI-H460
  GI50: > 100 µM (inactive)
UO-31
  GI50: > 100 µM (inactive)
SF-268
  GI50: > 100 µM (inactive)
OVCAR-5
  GI50: > 100 µM (inactive)
NCI-H226
  GI50: > 100 µM (inactive)
T47D
  GI50: > 100 µM (inactive)
A498
  GI50: > 100 µM (inactive)
SK-MEL-28
  GI50: > 100 µM (inactive)
CCRF-CEM
  GI50: > 100 µM (inactive)
HT-29
  GI50: > 100 µM (inactive)
SK-MEL-5
  GI50: > 100 µM (inactive)
786-0
  GI50: > 100 µM (inactive)
SNB-75
  GI50: > 100 µM (inactive)
OVCAR-3
  GI50: > 100 µM (inactive)
HCT-116
  GI50: > 100 µM (inactive)
SR
  GI50: > 100 µM (inactive)
MCF7
  GI50: > 100 µM (inactive)
SN12C
  GI50: > 100 µM (inactive)
NCI-H522
  GI50: > 100 µM (inactive)
OVCAR-4
  GI50: > 100 µM (inactive)
NCI/ADR-RES
  GI50: > 100 µM (inactive)
SK-OV-3
  GI50: > 100 µM (inactive)
Hs-578T
  GI50: > 100 µM (inactive)
HL-60
  GI50: > 100 µM (inactive)
RXF 393
  GI50: > 100 µM (inactive)
BT-549
  GI50: > 100 µM (inactive)
KM12
  GI50: > 100 µM (inactive)
LOX IMVI
  GI50: > 100 µM (inactive)
UACC-62
  GI50: > 100 µM (inactive)
TK-10
  GI50: > 100 µM (inactive)
COLO 205
  GI50: > 100 µM (inactive)
HOP-62
  GI50: > 100 µM (inactive)
U-251
  GI50: > 100 µM (inactive)
IGROV-1
  GI50: > 100 µM (inactive)
A549
  GI50: > 100 µM (inactive)
UACC-257
  GI50: > 100 µM (inactive)
NCI-H23
  GI50: > 100 µM (inactive)
M14
  GI50: > 100 µM (inactive)
DU-145
  GI50: > 100 µM (inactive)
HCT-15
  GI50: > 100 µM
SW-620
  GI50: > 100 µM (inactive)
MDA-N
  GI50: > 100 µM (inactive)
SNB-19
  GI50: > 100 µM (inactive)
K562
  GI50: > 100 µM (inactive)
OVCAR-8
  GI50: > 100 µM (inactive)
PC-3
  GI50: > 100 µM (inactive)
HCC 2998
  GI50: > 100 µM (inactive)
MOLT-4
  GI50: > 100 µM (inactive)
SK-MEL-2
  GI50: > 100 µM (inactive)
Malme-3M
  GI50: > 100 µM (inactive)
RPMI-8226
  GI50: > 100 µM (inactive)
MDA-MB-231
  GI50: > 100 µM (inactive)

## Cc1ccc2c(c1)C(=O)c1ccc(C)nc1C2=O
ACHN
  GI50: 35.7 µM (inactive)
EKVX
  GI50: 40.7 µM (inactive)
SF-295
  GI50: 24.6 µM (inactive)
MDA-MB-435
  GI50: 19.3 µM (inactive)
UO-31
  GI50: 40.9 µM (inactive)
SF-268
  GI50: 34.9 µM (inactive)
OVCAR-5
  GI50: > 100 µM (inactive)
NCI-H226
  GI50: > 100 µM (inactive)
T47D
  GI50: 62.7 µM (inactive)
A498
  GI50: > 100 µM (inactive)
SK-MEL-28
  GI50: 46.8 µM (inactive)
CCRF-CEM
  GI50: 58.7 µM (inactive)
HT-29
  GI50: 31.8 µM (inactive)
SK-MEL-5
  GI50: 13.2 µM (inactive)
786-0
  GI50: 85.9 µM (inactive)
SNB-75
  GI50: 42.4 µM (inactive)
OVCAR-3
  GI50: 6.19 µM (inactive)
HCT-116
  GI50: 19.1 µM (inactive)
SR
  GI50: 34.1 µM (inactive)
MCF7
  GI50: 27.4 µM (inactive)
SN12C
  GI50: 20.4 µM (inactive)
SF-539
  GI50: 23 µM (inactive)
NCI-H522
  GI50: 25.9 µM (inactive)
OVCAR-4
  GI50: 27.7 µM (inactive)
NCI/ADR-RES
  GI50: 24 µM (inactive)
SK-OV-3
  GI50: > 100 µM (inactive)
Hs-578T
  GI50: > 100 µM (inactive)
HL-60
  GI50: 26.7 µM (inactive)
RXF 393
  GI50: > 100 µM (inactive)
BT-549
  GI50: 25.6 µM (inactive)
KM12
  GI50: 27.9 µM (inactive)
CAKI-1
  GI50: 41.7 µM (inactive)
LOX IMVI
  GI50: 21.9 µM (inactive)
UACC-62
  GI50: 21.9 µM (inactive)
TK-10
  GI50: > 100 µM (inactive)
COLO 205
  GI50: 31.9 µM (inactive)
HOP-62
  GI50: 37.8 µM (inactive)
U-251
  GI50: 32.4 µM (inactive)
IGROV-1
  GI50: 27.7 µM (inactive)
A549
  GI50: 31.8 µM (inactive)
UACC-257
  GI50: 24 µM (inactive)
NCI-H23
  GI50: 18.9 µM (inactive)
M14
  GI50: 31.8 µM (inactive)
DU-145
  GI50: 49.4 µM (inactive)
HCT-15
  GI50: 16.9 µM
SW-620
  GI50: 27.9 µM (inactive)
MDA-N
  GI50: 16.6 µM (inactive)
SNB-19
  GI50: 22.2 µM (inactive)
K562
  GI50: 48.4 µM (inactive)
OVCAR-8
  GI50: 46.9 µM (inactive)
PC-3
  GI50: 31.8 µM (inactive)
HCC 2998
  GI50: 31.3 µM (inactive)
MOLT-4
  GI50: > 100 µM (inactive)
SK-MEL-2
  GI50: 69.2 µM (inactive)
Malme-3M
  GI50: 8.71 µM (inactive)
RPMI-8226
  GI50: 43.3 µM (inactive)
MDA-MB-231
  GI50: 3.98 µM (inactive)
